Source: paper PMC7411887, “New Paracyclophanylthiazoles with Anti-Leukemia Activity: Design, Synthesis, Molecular Docking, and Mechanistic Studies” (Molecules, 2020)

Experiments:
Test in all cases: NCI five-dose assay
Assay type in all cases: cell-based
[1] = tested on: SF-268; settings: Homo sapiens, CNS Cancer SF-268
[2] = tested on: SK-MEL-5; settings: Melanoma SK-MEL-5
[3] = tested on: CAKI-1; settings: Renal Cancer CAKI-1
[4] = Homo sapiens, read-out: GI50 Concentration/Cell Line

## COC(=O)C=C1SC(=NNC(=O)c2cc3ccc2CCc2ccc(cc2)CC3)N(c2ccccc2)C1=O [Compound 3a]
[1]; read-out: GI50 Concentration/Cell Line
  GI50: 3.09 µM
[1]; read-out: LC50 (the source's name)
  CC50: > 100 µM
[2]; Homo sapiens
  LC50: > 100 µM
[2]; [4]
  GI50: 7.56 µM
[2]
  TGI Concentration/Cell Line: >100 µM
[3]; [4]
  GI50: 1520 nM
[3]; Homo sapiens, read-out: LC50 (the source's name)
  CC50: 9.78 µM
[3]
  TGI Concentration/Cell Line: 3.00 µM
